Reference: article PMC11243058, “Identification of Novel Isatin Derivative Bearing a Nitrofuran Moiety as Potent Multi-Isoform Aldehyde Dehydrogenase Inhibitor” (Molecules, 2024)
Read-outs that look alike come from different tables or passages of the source.

Key:
[1] = system: HCT-116; experiment: Cell viability assay (MTS), HCT-116; type: cell-based, human; details: Homo sapiens, HCT-116, colon cancer cells, 48 h, mean ± SD
Method: (§1) Five thousand cells/well were plated in 96-well plates in growth media and left for attachment for 24 h. The cells were then treated with the respective compounds using varying concentrations for 48 h. At the end of the treatment duration, a solution of MTS [3-(4,5-dimethylthiazol-2-yl)-5-(3-carboxymethoxyphenyl)-2-(4-sulfophenyl)-2H-tetrazolium] and an electron coupling reagent, PES (phenazine ethosulfate) (Promega, Madison, WI, USA) was added to the cells. Then, 15 μL of MTS reagent was added to each well, and the absorbance was assessed at 490 nm with a microplate reader (Dynex Technologies, MRX Revelation; Chantilly, VA, USA) after 1 h incubation with MTS. The data were recorded, and the IC50 value was calculated using non-linear curve regression analysis (Graph pad V8.0, CA, USA).

[2] = system: FHC; experiment: Cell viability assay (MTS), FHC; type: cell-based; details: FHC, normal fetal human cells, 48 h, mean ± SD
Method: as §1

[3] = system: SKOV-3; experiment: Cell viability assay (MTS), SKOV-3; type: cell-based, human; details: Homo sapiens, SK-OV-3, ovarian cancer cells, 48 h, mean ± SD
Method: as §1

[4] = system: HEK-293; experiment: Cell viability assay (MTS), HEK-293; type: cell-based; details: HEK293, human embryonic kidney cells, 48 h, mean ± SD
Method: as §1

[5] = system: SKOV-3, MiaPaCa-2, HCT-116, HEK-293, and FHC cell lines; experiment: Cell viability assay (MTS), statements over the cell line panel; type: cell-based, human; details: for IC50 / cytotoxicity against the tested cell lines: range or statement over all tested cell lines; for IC50: Homo sapiens, Pancreatic cancer cell, read-out: IC50 in cancer cell lines
Method: as §1

[6] = system: MiaPaCa-2; experiment: Cell viability assay (MTS), MiaPaCa-2; type: cell-based, human; details: Homo sapiens, MIA PaCa-2, pancreatic cancer cells, 48 h, mean ± SD
Method: as §1

[7] = ovarian, colon, and pancreatic cancer cells, 48 h MTS

| SMILES | melting point [°C] | IC50 [1] [µM] | IC50 [2] [µM] | IC50 [3] [µM] | IC50 [4] [µM] | IC50 / cytotoxicity against the tested cell lines ([5]; 48 h MTS) | IC50 [6] [µM] | IC50 [5, 7] [µM] | IC50 ([5]; 48 h) [µM] |
| --- | --- | --- | --- | --- | --- | --- | --- | --- | --- |
| Br.COc1ccc2c(c1)C(=O)C(=O)N2Cc1ccc(CSC(=N)N)cc1 [Compound 6, 4-((5-Methoxy-2,3-dioxoindolin-1-yl)methyl)benzyl carbamimidothioate hydrobromide] | 214 to 216 | > 50 | > 50 | 45 ± 2.5 | > 50 | inert | > 50 |  |  |
| Br.C=CCNC(=N)SCc1ccc(CN2C(=O)C(=O)c3cc(C(F)(F)F)ccc32)cc1 [Compound 7, 4-((2,3-Dioxo-5-(trifluoromethyl)indolin-1-yl)methyl)benzyl allylcarbamimidothioate hydrobromide] | 122 to 124 | 12 ± 3.1 | 8.1 ± 0.8 | 9.1 ± 1.3 | 9.7 ± 1.1 | less cytotoxic than KS100 | 10.3 ± 2.4 |  |  |
| COC(=O)/C=C/c1ccc(Cn2ncc3cc(C(F)(F)F)ccc32)cc1 [Compound 8, Methyl (E)-3-(4-((5-(trifluoromethyl)-1H-indazol-1-yl)methyl)phenyl)acrylate] |  | > 50 | > 50 | > 50 | > 50 |  | > 50 | > 50 |  |
| COC(=O)/C=C/c1ccc(Cn2cc3cc(C(F)(F)F)ccc3n2)cc1 [Compound 9, Methyl (E)-3-(4-((5-(trifluoromethyl)-2H-indazol-2-yl)methyl)phenyl)acrylate] |  | > 50 | > 50 | > 50 | > 50 |  | > 50 | > 50 |  |
| Br.C=CCNC(=N)SCc1ccc(Cn2ncc3cc(C(F)(F)F)ccc32)cc1 [Compound 10, 4-((5-(Trifluoromethyl)-1H-indazol-1-yl)methyl)benzyl allylcarbamimidothioate hydrobromide] | 104 to 106 | > 50 | > 50 | > 50 | > 50 |  | 48.4 ± 3.2 |  | > 50 |
| Br.C=CCNC(=N)SCc1ccc(Cn2cc3cc(C(F)(F)F)ccc3n2)cc1 [Compound 11, 4-((5-(Trifluoromethyl)-2H-indazol-2-yl)methyl)benzyl allylcarbamimidothioate hydrobromide] | 105 to 107 | > 50 | > 50 | > 50 | > 50 |  | > 50 |  | > 50 |
| Br.N=C(N)SCc1ccc(Cn2cc3cc(C(F)(F)F)ccc3n2)cc1 [Compound 13, 4-((5-(Trifluoromethyl)-2H-indazol-2-yl)methyl)benzyl carbamimidothioate hydrobromide] | 181 to 183 | 18.2 ± 3.1 | 14.4 ± 2.3 | 22.7 ± 2.3 | 18.9 ± 5.1 |  | 33.2 ± 4.4 |  | 4.7 to 33 |
| Br.N=C(N)SCc1ccc(Cn2ncc3cccc(C(F)(F)F)c32)cc1 [Compound 14, 4-((7-(Trifluoromethyl)-1H-indazol-1-yl)methyl)benzyl carbamimidothioate hydrobromide] | 206 to 208 | 14.2 ± 2.3 | 29.3 ± 4.9 | 16.8 ± 3.5 | 17.7 ± 3.7 |  | 12.3 ± 2.7 |  |  |
| Br.N=C(N)SCc1ccc(Cn2cc3cccc(C(F)(F)F)c3n2)cc1 [Compound 15, 4-((7-(Trifluoromethyl)-2H-indazol-2-yl)methyl)benzyl carbamimidothioate hydrobromide] | 195 to 197 | > 50 | > 50 | > 50 | > 50 |  | > 50 |  | > 50 |
| Br.COc1ccc2c(c1)c(Br)nn2Cc1ccc(CSC(=N)N)cc1 [Compound 18, 4-((3-Bromo-5-methoxy-1H-indazol-1-yl)methyl)benzyl carbamimidothioate hydrobromide] | 171 to 173 | 39.2 ± 3.9 | > 50 | 42.2 ± 5.8 | > 50 |  | 44.6 ± 3.7 |  | > 50 |
| OCc1ccc(Cn2nc(Br)c3cc(C(F)(F)F)ccc32)cc1 [Compound 19, (4-((3-Bromo-5-(trifluoromethyl)-1H-indazol-1-yl)methyl)phenyl)methanol] |  | > 50 | > 50 | > 50 | > 50 |  | > 50 | > 50 |  |
| O=Cc1ccc(Cn2nc(Br)c3cc(C(F)(F)F)ccc32)cc1 [Compound 20, 4-((3-Bromo-5-(trifluoromethyl)-1H-indazol-1-yl)methyl)benzaldehyde] |  | > 50 | > 50 | > 50 | > 50 |  | > 50 | > 50 |  |
| CN(C)CCC(=O)c1ccc(Cn2nc(Br)c3cc(C(F)(F)F)ccc32)cc1.Cl [Compound 21, 1-(4-((3-Bromo-5-(trifluoromethyl)-1H-indazol-1-yl)methyl)phenyl)-3-(dimethylamino)propan-1-one hydrochloride] | 171 to 173 | > 50 | > 50 | > 50 | > 50 |  | > 50 |  | > 50 |
